Results: ChEMBL document CHEMBL1201862, “PubChem BioAssay data set” (2004)
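Dose response: 5 concentrations. Exposure: 48 h. Format: 96-well plates. Endpoint: linear interpolation; highest concentration if not reached. GI50 is the concentration that inhibits growth by half.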 Activity calls are given as the source filed them. No stated cut-off is given here; in the data, active = GI50 up to about 1.1 µM and inactive = higher.

Key:
Assay in all cases: inhibition of tumour cell growth, NCI panel, 48 h
786-0 = test system: 786-0
A498 = test system: A498
A549 = test system: A549
ACHN = test system: ACHN
CAKI-1 = test system: CAKI-1
COLO 205 = test system: COLO 205
DLD-1 = test system: DLD-1
DMS-114 = test system: DMS-114
DMS-273 = test system: DMS-273
EKVX = test system: EKVX
HCC 2998 = test system: HCC 2998
HCT-116 = test system: HCT-116
HCT-15 = test system: HCT-15
HOP-18 = test system: HOP-18
HOP-62 = test system: HOP-62
HOP-92 = test system: HOP-92
HT-29 = test system: HT-29
IGROV-1 = test system: IGROV-1
KM-20L2 = test system: KM-20L2
KM12 = test system: KM12
LOX IMVI = test system: LOX IMVI
LXFL 529 = test system: LXFL 529
M14 = test system: M14
M19-MEL = test system: M19-MEL
MOLT-4 = test system: MOLT-4
Malme-3M = test system: Malme-3M
NCI-H226 = test system: NCI-H226
NCI-H23 = test system: NCI-H23
NCI-H460 = test system: NCI-H460
OVCAR-3 = test system: OVCAR-3
OVCAR-4 = test system: OVCAR-4
OVCAR-5 = test system: OVCAR-5
OVCAR-8 = test system: OVCAR-8
RPMI-8226 = test system: RPMI-8226
RXF 393 = test system: RXF 393
RXF 631 = test system: RXF 631
SF-268 = test system: SF-268
SF-295 = test system: SF-295
SF-539 = test system: SF-539
SK-MEL-28 = test system: SK-MEL-28
SK-MEL-5 = test system: SK-MEL-5
SK-OV-3 = test system: SK-OV-3
SN12C = test system: SN12C
SNB-19 = test system: SNB-19
SNB-75 = test system: SNB-75
SNB-78 = test system: SNB-78
SR = test system: SR
SW-620 = test system: SW-620
TK-10 = test system: TK-10
U-251 = test system: U-251
UACC-257 = test system: UACC-257
UACC-62 = test system: UACC-62
UO-31 = test system: UO-31
XF498 = test system: XF498

SMILES: COc1cc2nc(Sc3c([N+](=O)[O-])ncn3C)[nH]c2cc1OC
- GI50 (786-0): 71 µM (inactive)
- GI50 (A498): 78 µM (inactive)
- GI50 (A549): 34.8 µM (inactive)
- GI50 (ACHN): 54.3 µM (inactive)
- GI50 (CAKI-1): 4.47 µM (inactive)
- GI50 (COLO 205): 13.6 µM (inactive)
- GI50 (DLD-1): 14 µM (inactive)
- GI50 (DMS-114): 11.6 µM (inactive)
- GI50 (DMS-273): 1.65 µM (inactive)
- GI50 (EKVX): 21.2 µM (inactive)
- GI50 (HCC 2998): 17.9 µM (inactive)
- GI50 (HCT-116): 27.4 µM (inactive)
- GI50 (HCT-15): 19.4 µM
- GI50 (HOP-18): > 100 µM (inactive)
- GI50 (HOP-62): > 100 µM (inactive)
- GI50 (HOP-92): 16.5 µM (inactive)
- GI50 (HT-29): 41.7 µM (inactive)
- GI50 (IGROV-1): 14.2 µM (inactive)
- GI50 (KM-20L2): 33.6 µM (inactive)
- GI50 (KM12): 46.7 µM (inactive)
- GI50 (LOX IMVI): 41.6 µM (inactive)
- GI50 (LXFL 529): 12.4 µM (inactive)
- GI50 (M14): 87.5 µM (inactive)
- GI50 (M19-MEL): 33.1 µM (inactive)
- GI50 (MOLT-4): 12.5 µM (inactive)
- GI50 (Malme-3M): 56.2 µM (inactive)
- GI50 (NCI-H226): 28.3 µM (inactive)
- GI50 (NCI-H23): 26.1 µM (inactive)
- GI50 (NCI-H460): 49.9 µM (inactive)
- GI50 (OVCAR-3): 46.8 µM (inactive)
- GI50 (OVCAR-4): 38.5 µM (inactive)
- GI50 (OVCAR-5): 98.6 µM (inactive)
- GI50 (OVCAR-8): 15.1 µM (inactive)
- GI50 (RPMI-8226): 22.3 µM (inactive)
- GI50 (RXF 393): 16.1 µM (inactive)
- GI50 (RXF 631): 1.74 µM (inactive)
- GI50 (SF-268): 19.2 µM (inactive)
- GI50 (SF-295): > 100 µM (inactive)
- GI50 (SF-539): 18.6 µM (inactive)
- GI50 (SK-MEL-28): 20.5 µM (inactive)
- GI50 (SK-MEL-5): 18.9 µM (inactive)
- GI50 (SK-OV-3): 79.4 µM (inactive)
- GI50 (SN12C): 16.3 µM (inactive)
- GI50 (SNB-19): 26.1 µM (inactive)
- GI50 (SNB-75): 28.4 µM (inactive)
- GI50 (SNB-78): 34.8 µM (inactive)
- GI50 (SR): 13.3 µM (inactive)
- GI50 (SW-620): 26 µM (inactive)
- GI50 (TK-10): 26.9 µM (inactive)
- GI50 (U-251): 31.3 µM (inactive)
- GI50 (UACC-257): 28.6 µM (inactive)
- GI50 (UACC-62): 24.3 µM (inactive)
- GI50 (UO-31): 46 µM (inactive)
- GI50 (XF498): 11 µM (inactive)
